The source of these data is patent publication US20250136606A1, “MODULATORS OF TRPML, THEIR COMPOSITIONS AND METHODS OF USE” (Caraway Therapeutics, Inc., priority 2021, published 2025).

Holding throughout (assay type): cell-based
Conditions in all cases: fluorescent calcium assay

The target in one test is TRPML1 (Homo sapiens, UniProt Q9GZU1). The test is described as follows: Fluorescent TRPML1 assay (Fluo4-AM calcium fluorescence in doxycycline-induced HEK-293 Trex cells). A digest of the protocol: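 HEK-293 Trex cells stably carrying human TRPML1 (surface-trafficking mutant) were induced overnight with 0.5 ug/mL doxycycline, loaded with 1 micromolar Fluo4-AM, and suspended in Ringer's with 10 mM calcium. Compounds at 20 micromolar to 6 nanomolar final, half-log steps, triplicate; fluorescence 480/540 nm gave percent activity versus controls and EC50 by non-linear regression.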
TRPML1, sequence (Q9GZU1 whole entry L15A/L16A/L577A/L578A, form open): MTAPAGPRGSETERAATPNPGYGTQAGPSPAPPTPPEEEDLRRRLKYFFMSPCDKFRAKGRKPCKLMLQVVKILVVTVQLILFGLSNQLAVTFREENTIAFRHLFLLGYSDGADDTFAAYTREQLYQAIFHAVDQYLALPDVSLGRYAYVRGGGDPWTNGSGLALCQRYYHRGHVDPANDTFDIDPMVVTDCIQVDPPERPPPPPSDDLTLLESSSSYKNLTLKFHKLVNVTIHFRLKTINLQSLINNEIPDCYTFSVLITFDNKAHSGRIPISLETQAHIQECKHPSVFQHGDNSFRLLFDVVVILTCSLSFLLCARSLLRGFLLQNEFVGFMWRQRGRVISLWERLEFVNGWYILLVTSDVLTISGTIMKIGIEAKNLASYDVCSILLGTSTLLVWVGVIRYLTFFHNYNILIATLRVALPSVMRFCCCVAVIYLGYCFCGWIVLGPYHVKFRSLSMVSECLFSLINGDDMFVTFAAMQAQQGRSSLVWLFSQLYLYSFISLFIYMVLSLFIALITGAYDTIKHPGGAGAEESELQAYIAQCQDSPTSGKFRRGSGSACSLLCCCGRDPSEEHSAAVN

The target in another test is T1, TRPML3 (Homo sapiens, UniProt Q8TDD5).
T1 construct: expressed in transfected cells
T1 sequence (Q8TDD5 1-553): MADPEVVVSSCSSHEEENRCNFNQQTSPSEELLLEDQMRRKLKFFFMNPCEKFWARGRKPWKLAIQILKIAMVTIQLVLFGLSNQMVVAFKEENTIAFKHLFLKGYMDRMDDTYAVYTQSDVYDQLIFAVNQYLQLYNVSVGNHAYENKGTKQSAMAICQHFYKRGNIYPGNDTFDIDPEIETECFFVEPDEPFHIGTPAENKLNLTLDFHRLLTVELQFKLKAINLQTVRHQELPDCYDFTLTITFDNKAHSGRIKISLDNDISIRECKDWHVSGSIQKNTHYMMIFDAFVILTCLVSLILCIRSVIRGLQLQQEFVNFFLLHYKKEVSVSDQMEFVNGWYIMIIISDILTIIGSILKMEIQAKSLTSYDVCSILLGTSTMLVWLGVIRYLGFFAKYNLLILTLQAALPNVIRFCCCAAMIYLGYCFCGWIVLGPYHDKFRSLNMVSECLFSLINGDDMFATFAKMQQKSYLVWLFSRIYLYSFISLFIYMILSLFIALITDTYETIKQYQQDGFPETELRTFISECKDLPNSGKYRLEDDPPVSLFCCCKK
The test is described as follows: Fluorescent TRPML3 assay (performed as for TRPML1, substituting the TRPML3 subtype). Summed up:
(§1)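 Compound series (final 6 nM-20 μM, half-log, triplicate) were added to Fluo4-AM-loaded HEK-293 Trex cells in 10 mM calcium Ringer's, expressing the human TRPML subtype after doxycycline 0.5 ug/mL induction. Percent activity versus positive/negative controls from 480/540 nm fluorescence; EC50 by non-linear regression.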

Another test has as its target T2, TRPML2 (Homo sapiens, UniProt Q8IZK6).
T2 construct: expressed in transfected cells
T2 sequence (Q8IZK6 1-566): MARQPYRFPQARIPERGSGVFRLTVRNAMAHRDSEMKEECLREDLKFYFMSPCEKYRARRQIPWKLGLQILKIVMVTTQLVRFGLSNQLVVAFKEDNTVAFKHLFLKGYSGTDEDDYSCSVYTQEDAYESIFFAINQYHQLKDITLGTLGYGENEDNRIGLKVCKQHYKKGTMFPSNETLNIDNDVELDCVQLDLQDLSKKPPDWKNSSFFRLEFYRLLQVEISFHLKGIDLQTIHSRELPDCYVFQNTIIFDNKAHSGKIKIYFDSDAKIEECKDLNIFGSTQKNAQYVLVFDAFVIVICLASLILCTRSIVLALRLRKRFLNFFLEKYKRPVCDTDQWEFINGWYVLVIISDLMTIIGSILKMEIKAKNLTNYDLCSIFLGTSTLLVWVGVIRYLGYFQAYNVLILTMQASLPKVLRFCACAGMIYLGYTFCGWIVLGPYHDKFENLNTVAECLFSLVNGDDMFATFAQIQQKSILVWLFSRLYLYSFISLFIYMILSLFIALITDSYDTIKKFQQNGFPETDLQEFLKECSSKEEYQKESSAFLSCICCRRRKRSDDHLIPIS
As to the kind of experiment: Fluorescent TRPML2 assay (performed as for TRPML1, substituting the TRPML2 subtype). Summed up: as §1

On to `C[C@H]1CN(C(=O)OC(C)(C)C)CCN1c1ncnc2c1c(N1CCCC1=O)cn2-c1cccc(Cl)c1` [Compound 309, tert-butyl (S)-4-(7-(3-chlorophenyl)-5-(2-oxopyrrolidin-1-yl)-7H-pyrrolo[2,3-d]pyrimidin-4-yl)-3-methylpiperazine-1-carboxylate], for which the concentration giving a half-maximal response (EC50) is more than 2000 nM on TRPML1, 500 to 2000 nM on TRPML3 and more than 2000 nM at TRPML2.
With `C[C@H]1CN(C(=O)OC(C)(C)C)CCN1c1ncnc2c1c(N1CCCCC1)cn2-c1cccc(Cl)c1` [Compound 310, tert-butyl (S)-4-(7-(3-chlorophenyl)-5-(piperidin-1-yl)-7H-pyrrolo[2,3-d]pyrimidin-4-yl)-3-methylpiperazine-1-carboxylate], the concentration giving a half-maximal response (EC50) on TRPML1, on TRPML3 and at TRPML2 was less than 100 nM throughout.
Take `C[C@@H]1CN(c2ncnc3c2c(N2CCCC2)cn3-c2cccc(OC(F)(F)F)c2)CCN1C(=O)OC(C)(C)C` [Compound 311, tert-butyl (R)-2-methyl-4-(5-(pyrrolidin-1-yl)-7-(3-(trifluoromethoxy)phenyl)-7H-pyrrolo[2,3-d]pyrimidin-4-yl)piperazine-1-carboxylate]: the EC50 at TRPML1, at TRPML3 and on TRPML2 was less than 100 nM throughout.
As for `C[C@H]1CN(C(=O)OC(C)(C)C)CCN1c1ncnc2c1c(N1CCC[C@@H]1CO)cn2-c1cccc(Cl)c1` [Compound 312, tert-butyl (S)-4-(7-(3-chlorophenyl)-5-((R)-2-(hydroxymethyl)pyrrolidin-1-yl)-7H-pyrrolo[2,3-d]pyrimidin-4-yl)-3-methylpiperazine-1-carboxylate], the concentration giving a half-maximal response (EC50) at TRPML1 is 100 to 500 nM; on TRPML3, less than 100 nM; on TRPML2, 500 to 2000 nM.
The matching figures for `C[C@@H]1CN(c2ncnc3c2c(N2CCCC2=O)cn3-c2cc(F)c(F)c(F)c2)CCN1C(=O)OC(C)(C)C` [Compound 313, tert-butyl (R)-2-methyl-4-(5-(2-oxopyrrolidin-1-yl)-7-(3,4,5-trifluorophenyl)-7H-pyrrolo[2,3-d]pyrimidin-4-yl)piperazine-1-carboxylate]: more than 2000 nM, 500 to 2000 nM and more than 2000 nM.
In the same order, the values of `COc1cc(-n2cc(C3CC3)c3c(N4CCN(C(=O)OC(C)(C)C)C[C@@H]4C)ncnc32)ccc1F` [Compound 317, tert-butyl (S)-4-(5-cyclopropyl-7-(4-fluoro-3-methoxyphenyl)-7H-pyrrolo[2,3-d]pyrimidin-4-yl)-3-methylpiperazine-1-carboxylate] are 500 to 2000 nM, 100 to 500 nM and more than 2000 nM.
The matching figures for `C[C@H]1CN(C(=O)OC(C)(C)C(F)(F)F)CCN1c1ncnc2c1c(C1CC1)cn2-c1cc(C#N)ccn1` [Compound 318, 1,1,1-trifluoro-2-methylpropan-2-yl (S)-4-(7-(4-cyanopyridin-2-yl)-5-cyclopropyl-7H-pyrrolo[2,3-d]pyrimidin-4-yl)-3-methylpiperazine-1-carboxylate]: less than 100 nM, 100 to 500 nM and 500 to 2000 nM.
Regarding `Cc1nccnc1-c1cn(-c2cc(C#N)ccn2)c2ncnc(N3CCN(C(=O)OC(C)(C)C)C[C@@H]3C)c12` [Compound 319, tert-butyl (S)-4-(7-(4-cyanopyridin-2-yl)-5-(3-methylpyrazin-2-yl)-7H-pyrrolo[2,3-d]pyrimidin-4-yl)-3-methylpiperazine-1-carboxylate], the half-maximal effective concentration (EC50) was 500 to 2000 nM on TRPML1, 100 to 500 nM on TRPML3 and 500 to 2000 nM on TRPML2.
For `C[C@H]1CN(C(=O)OC(C)(C)C)CCN1c1ncnc2c1c(-c1cnn(C)c1)cn2-c1cccc(OC(F)(F)F)c1` [Compound 321, tert-butyl (S)-3-methyl-4-(5-(1-methyl-1H-pyrazol-4-yl)-7-(3-(trifluoromethoxy)phenyl)-7H-pyrrolo[2,3-d]pyrimidin-4-yl)piperazine-1-carboxylate], the figures for the concentration giving a half-maximal response (EC50) on TRPML1, at TRPML3 and at TRPML2 were 500 to 2000 nM, 500 to 2000 nM and more than 2000 nM, respectively.
As for `C[C@H]1CN(C(=O)OC(C)(C)C)CCN1c1ncnc2c1c(-n1cccn1)cn2-c1cccc(Cl)c1` [Compound 322, tert-butyl (S)-4-(7-(3-chlorophenyl)-5-(1H-pyrazol-1-yl)-7H-pyrrolo[2,3-d]pyrimidin-4-yl)-3-methylpiperazine-1-carboxylate], the figures for the EC50 on TRPML1, on TRPML3 and at TRPML2 were 100 to 500 nM, less than 100 nM and 500 to 2000 nM, respectively.
As to `C[C@H]1CN(C(=O)OC(C)(C)C)CCN1c1ncnc2c1c(-n1ccnc1)cn2-c1cccc(Cl)c1` [Compound 323, tert-butyl (S)-4-(7-(3-chlorophenyl)-5-(1H-imidazol-1-yl)-7H-pyrrolo[2,3-d]pyrimidin-4-yl)-3-methylpiperazine-1-carboxylate], the results for the EC50 at TRPML1, on TRPML3 and on TRPML2 were 100 to 500 nM, less than 100 nM and more than 2000 nM, respectively.
The matching figures for `C[C@H]1CN(C(=O)OC(C)(C)C)CCN1c1ncnc2c1c(N1CCOCC1)cn2-c1cccc(C#N)c1` [Compound 324, tert-butyl (S)-4-(7-(3-cyanophenyl)-5-morpholino-7H-pyrrolo[2,3-d]pyrimidin-4-yl)-3-methylpiperazine-1-carboxylate]: less than 100 nM, less than 100 nM and 500 to 2000 nM.
The matching figures for `C[C@H]1CN(C(=O)OC(C)(C)C(F)(F)F)CCN1c1ncnc2c1c(C1CC1)cn2C1CCCCC1` [Compound 325, 1,1,1-trifluoro-2-methylpropan-2-yl (S)-4-(7-cyclohexyl-5-cyclopropyl-7H-pyrrolo[2,3-d]pyrimidin-4-yl)-3-methylpiperazine-1-carboxylate]: 100 to 500 nM, less than 100 nM and 100 to 500 nM.
With `C[C@H]1CN(C(=O)OC(C)(C)C)CCN1c1ncnc2c1c(C1CC1)cn2C1CCCCC1` [Compound 326, tert-butyl (S)-4-(7-cyclohexyl-5-cyclopropyl-7H-pyrrolo[2,3-d]pyrimidin-4-yl)-3-methylpiperazine-1-carboxylate], the values for the EC50 on TRPML1, on TRPML3 and at TRPML2 were 100 to 500 nM, less than 100 nM and more than 2000 nM, respectively.
In the same order, the values of `C[C@H]1CN(C(=O)OC(C)(C)C)CCN1c1ncnc2c1c(-c1cncnc1)cn2-c1cccc(Cl)c1` [Compound 327, tert-butyl (S)-4-(7-(3-chlorophenyl)-5-(pyrimidin-5-yl)-7H-pyrrolo[2,3-d]pyrimidin-4-yl)-3-methylpiperazine-1-carboxylate] are 100 to 500 nM, less than 100 nM and 500 to 2000 nM.
The matching figures for `C[C@H]1CN(C(=O)OC(C)(C)C)CCN1c1ncnc2c1c(-c1cncnc1)cn2-c1cccc(C#N)c1` [Compound 328, tert-butyl (S)-4-(7-(3-cyanophenyl)-5-(pyrimidin-5-yl)-7H-pyrrolo[2,3-d]pyrimidin-4-yl)-3-methylpiperazine-1-carboxylate]: 500 to 2000 nM, 100 to 500 nM and more than 2000 nM.
In the same order, the values of `C[C@H]1CN(C(=O)OC(C)(C)C(F)(F)F)CCN1c1ncnc2c1c(-c1cnn(C)c1)cn2-c1cccc(C#N)c1` [Compound 329, 1,1,1-trifluoro-2-methylpropan-2-yl (S)-4-(7-(3-cyanophenyl)-5-(1-methyl-1H-pyrazol-4-yl)-7H-pyrrolo[2,3-d]pyrimidin-4-yl)-3-methylpiperazine-1-carboxylate] are 500 to 2000 nM, 100 to 500 nM and more than 2000 nM.
With `C[C@H]1CN(C(=O)OC(C)(C)C(F)(F)F)CCN1c1ncnc2c1c(-c1cnn(C)c1)cn2-c1cc(C#N)ccn1` [Compound 330, 1,1,1-trifluoro-2-methylpropan-2-yl (S)-4-(7-(4-cyanopyridin-2-yl)-5-(1-methyl-1H-pyrazol-4-yl)-7H-pyrrolo[2,3-d]pyrimidin-4-yl)-3-methylpiperazine-1-carboxylate], the concentration for a half-maximal effect (EC50) was less than 100 nM on TRPML1, less than 100 nM at TRPML3 and 100 to 500 nM at TRPML2.

A word on the EC50: it is the concentration needed to bring the measured effect to its halfway point.
